≈ marks a conversion by molar mass, not a printed value.
Tests used:
[1] = tested on: E. coli D22; test: MIC, broth microdilution; format: cell-based; conditions: Escherichia coli, 20 h, 37 °C, LB
Experimental: (§1) Besides measuring the inhibitory activities toward E. coli LpxC C63A, the antibacterial activities of the synthesized hydroxamic acids were evaluated by determining their minimal inhibitory concentrations (MIC) in broth dilution tests as well as by performing disc diffusion assays (Table 1).
(§2) The MIC values of the compounds were determined by means of the microdilution method using 96-well plates.
(§3) The overnight suspension was diluted 1:1000 in fresh LB. 10 μL of a 2-fold dilution series of the compounds in DMSO and 90 μL of LB were dispensed to each well of a 96-well plate. Then, 100 μL of the inoculated medium was added, resulting in 5 × 10^5 cfu mL^–1, 5% DMSO, and a final concentration range of the test compounds between 64 and 0.016 μg mL^–1. The plates were incubated for 20 h at 37 °C. The MIC was defined as the lowest concentration of the compounds that prevented visible growth after incubation. Each assay was performed at least three times on separate days.

[2] = tested on: E. coli BL21(DE3); test: MIC, broth microdilution; format: cell-based; conditions: Escherichia coli, 20 h, 37 °C, LB
Experimental: as §1, §2, §3

[3] = biological target: T1, E. coli LpxC C63A (Escherichia coli, UniProt P0A725, C63A); test: fluorescence-based E. coli LpxC C63A enzyme inhibition assay; format: biochemical; conditions: Ki E. coli LpxC C63A, from IC50 via Cheng–Prusoff
T1 construct: made in house; host or cells: E. coli BL21(DE3)
Experimental: In order to determine the inhibitory activities of the compounds of interest toward E. coli LpxC, a fluorescence-based enzyme assay was deployed, in which the formed deacetylated natural product UDP-3-O-[(R)-3-hydroxymyristoyl]glucosamine (2) is transformed into a fluorescent isoindole with o-phthaldialdehyde and 2-mercaptoethanol.[48],[49] […] The KM of E. coli LpxC C63A was determined experimentally using a mass spectrometry-based LpxC assay (Figure S8, Supporting Information, vide infra).
A fluorescence-based microplate assay for LpxC activity was performed as described by Clements et al.[48] The wells in a black, nonbinding, 96-well fluorescence microplate (Greiner Bio One, Frickenhausen) were filled with 93 μL of 26.9 μM UDP-3-O-[(R)-3-hydroxymyristoyl]-N-acetylglucosamine in assay buffer [40 mM sodium morpholinoethanesulfonic acid (pH 6.0), 80 μM dithiothreitol, 0.02% Brij 35]. In order to assay the inhibitors at final concentrations from 20 nM up to 20 μM, 2 μL of a respective dilution of the compounds in DMSO were added. The addition of 5 μL of a solution of purified LpxC (10 μg mL^–1) in assay buffer led to final concentrations of 25 μM UDP-3-O-[(R)-3-hydroxymyristoyl]-N-acetylglucosamine, 15 nM E. coli LpxC C63A, 2% DMSO, and from 20 nM up to 20 μM inhibitor. The microplate was incubated for 30 min at 37 °C in a plate shaker. Then, the biochemical reaction was stopped by adding 40 μL of 0.625 M sodium hydroxide. The reaction mixture was further incubated for 10 min and neutralized by adding 40 μL of 0.625 M acetic acid. The deacetylated product UDP-3-O-[(R)-3-hydroxymyristoyl]glucosamine was converted into a fluorescing isoindole by adding 120 μL of an o-phthaldialdehyde-2-mercaptoethanol solution, which was prepared by dissolving 10 mg of o-phthaldialdehyde in 1 mL of methanol, diluting the mixture with 24 mL of a sodium borate buffer (0.1 M), and finally adding 2.5 μL of 2-mercaptoethanol.[49] Fluorescence was measured with a TriStar^2 S LB 942 plate reader (Berthold, Bad Wildbad) at 340 nm excitation and 460 nm emission wavelengths. Each assay was performed at least three times on separate days. The IC50 values were calculated via Probit-log concentration graphs with the aid of the software Origin and were subsequently converted into Ki values using the Cheng–Prusoff equation.[75],[76]

[4] = tested on: E. coli D22; test: disc diffusion assay; format: cell-based; conditions: 0.15 μmol per 6 mm disc
Experimental: as §1
(§4) The disc diffusion assays against E. coli BL21(DE3) and the defective strain E. coli D22 were performed as follows: liquid cultures of the bacteria were grown overnight in lysogeny broth (LB)[73] at 37 °C and 200 rpm. 150 μL of an overnight cell suspension was spread evenly onto LB agar plates. 0.15 μmol of each compound (dissolved in 10 or 15 μL DMSO) were applied onto circular filter paper (Ø = 6 mm, Cytiva). Pure DMSO, serving as a negative control, and CHIR-090, serving as a positive control, were also spotted. The agar plates were incubated overnight at 37 °C, and the diameter of the zone of growth inhibition was measured for each compound. Each assay was performed at least three times on separate days.

[5] = tested on: E. coli BL21(DE3); test: disc diffusion assay; format: cell-based; conditions: 0.15 μmol per 6 mm disc
Experimental: as §1, §4

[6] = biological target: T2, LasB (Pseudomonas aeruginosa, UniProt Q02RJ6); test: FRET-based LasB in vitro inhibition assay; format: biochemical, P. aeruginosa PA14
T2 construct: The elastase LasB of P. aeruginosa is a secreted metalloprotease; endogenous in cells; host or cells: P. aeruginosa PA14 culture supernatant
Experimental: Purification of LasB from P. aeruginosa PA14 supernatant and the subsequent performance of the FRET-based in vitro inhibition assay was performed as described previously.[66] The TACE (ADAM-17) inhibitor screening kit was purchased from Sigma-Aldrich (Saint Louis, MO). MMPs 1–3 along with the SensoLyte 520 Generic MMP Activity Kit Fluorimetric were purchased from AnaSpec (Fremont, CA, USA). The assays were performed according to the guidelines of the respective manufacturer. Fluorescence signals were measured using a CLARIOstar plate reader (BMG Labtech, Ortenberg, Germany).

[7] = tested on: LpxC–9 complex; test: NMR-ILOE (interligand NOESY) of fragment hits with LpxC and 9; conditions: fragment hits binding the LpxC–9 complex by STD and WaterLogsy; 6 μM LpxC
Experimental: In order to find fragments specifically addressing the UDP-binding pocket, which can be linked to the LpxC inhibitors, a fragment screen was performed against LpxC bound to 9. First, 650 fragments in cocktails of five were tested for binding to the LpxC–9 complex using STD-NMR and WaterLogsy experiments. Then, fragment hits identified as potential binders were tested one by one against the LpxC–9 complex by STD-NMR and WaterLogsy experiments performed under identical experimental conditions. A total of 97 fragment hits were identified as binders, leading to a hit rate of 15%.
Then, NMR-ILOE experiments were performed with selected fragment hits in the presence of LpxC and the unsubstituted hydroxamic acid 9. This allowed the identification of fragments that bind in the enzyme’s UDP-binding pocket near the methylene group in the α-position of the inhibitor’s hydroxamate moiety. Weak interligand NOESY peaks were observed between inhibitor 9 and nine fragments. By contrast, no interligand NOESY peaks were observed between compound 9 and the other ten fragments. […] Unexpectedly, we also observed interligand NOESY between the fragment protons and protons of the morpholino moiety.
Standard 1D and STD NMR spectra were acquired at 20 °C with a Bruker 600 MHz NMR spectrometer equipped with a 5 mm cryoprobe. Parameters for the STD experiments (saturation frequency and saturation time) were identical for all samples. […] STD saturation time was 2 s. WaterLOGSY mixing time was 1.5 s. Two NOESY experiments were recorded with mixing times of 0.6 and 0.3 s. STD and WaterLOGSY spectra were recorded with the same NMR tubes containing 3 μM LpxC, compound 9 at 500 μM, and fragments at 500 μM. For NOESY experiments, NMR tubes contained 6 μM LpxC.
Temperature was set to 293 K for all NMR experiments.

T1 sequence (P0A725 whole entry C63A): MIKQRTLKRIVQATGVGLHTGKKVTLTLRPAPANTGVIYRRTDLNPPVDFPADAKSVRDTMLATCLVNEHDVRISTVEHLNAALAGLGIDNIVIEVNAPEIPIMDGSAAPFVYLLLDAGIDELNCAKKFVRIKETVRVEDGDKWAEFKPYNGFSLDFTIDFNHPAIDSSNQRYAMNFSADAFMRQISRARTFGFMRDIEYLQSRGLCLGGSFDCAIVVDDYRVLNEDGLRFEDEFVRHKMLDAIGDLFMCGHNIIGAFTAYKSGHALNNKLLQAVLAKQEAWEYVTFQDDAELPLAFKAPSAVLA
T2 sequence (Q02RJ6 198-498): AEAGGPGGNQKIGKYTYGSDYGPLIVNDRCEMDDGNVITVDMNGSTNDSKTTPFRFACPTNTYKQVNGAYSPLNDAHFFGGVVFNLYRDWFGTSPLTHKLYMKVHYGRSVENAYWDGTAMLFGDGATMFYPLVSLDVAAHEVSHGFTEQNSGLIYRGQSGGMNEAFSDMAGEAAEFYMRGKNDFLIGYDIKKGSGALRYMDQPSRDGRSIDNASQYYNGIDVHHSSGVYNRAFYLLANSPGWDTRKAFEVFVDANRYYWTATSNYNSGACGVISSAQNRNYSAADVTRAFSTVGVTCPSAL

| SMILES | MIC [1] [µg/mL] | MIC [2] [µg/mL] | Ki [3] [nM] | Inhibition zone E. coli D22 [4] [mm] | Inhibition zone E. coli BL21(DE3) [5] [mm] | LasB Inhibition at 20 μM ([6]; 20 μM) | inhibition at 20 µM ([6]; read-out: LasB Inhibition at 20 μM) [%] | Inter-Ligand NOESY peaks between the fragment and 9 [7] |
| --- | --- | --- | --- | --- | --- | --- | --- | --- |
| O=C(NO)[C@@H](COCc1ccccc1)OCc1ccc(C#Cc2ccc(CN3CCOCC3)cc2)cc1 [(R)-11a, (R)-3-(Benzyloxy)-N-hydroxy-2-[(4-{[4-(morpholinomethyl)phenyl]ethynyl}benzyl)oxy]propanamide] | 2 (≈ 4 µM) | > 32 | 3620 ± 640 | 15.7 ± 1.2 | ≤6 | – | – | – |
| O=C(NO)[C@@H](CNCc1ccccc1)OCc1ccc(C#Cc2ccc(CN3CCOCC3)cc2)cc1 [(R)-12a, (R)-3-(Benzylamino)-N-hydroxy-2-[(4-{[4-(morpholinomethyl)phenyl]ethynyl}benzyl)oxy]propanamide] | 4 (≈ 8.01 µM) | 32 (≈ 64 µM) | 5900 ± 2020 | 20.0 ± 1.8 | 10.7 ± 1.2 | – | – | – |
| O=C(NC[C@@H](OCc1ccc(C#Cc2ccc(CN3CCOCC3)cc2)cc1)C(=O)NO)c1ccccc1 [(R)-13a, (R)-N-{3-(Hydroxyamino)-2-[(4-{[4-(morpholinomethyl)phenyl]ethynyl}benzyl)oxy]-3-oxopropyl}benzamide] | 4 (≈ 7.79 µM) | – | 2560 ± 1080 | 18.0 ± 2.0 | 9.7 ± 0.6 | – | – | – |
| O=C(NC[C@@H](OCc1ccc(C#Cc2ccc(CN3CCOCC3)cc2)cc1)C(=O)NO)c1ccc(-c2ccccc2)cc1 [(R)-13b] | > 16 | > 16 | > 2540 | ≤6 | ≤6 | – | – | – |
| O=C(NC[C@@H](OCc1ccc(C#Cc2ccc(CN3CCOCC3)cc2)cc1)C(=O)NO)c1cccc(-c2ccccc2)c1 [(R)-13c] | > 16 | > 16 | > 2540 | ≤6 | ≤6 | – | – | – |
| O=C(NC[C@@H](OCc1ccc(C#Cc2ccc(CN3CCOCC3)cc2)cc1)C(=O)NO)c1ccc(Oc2ccccc2)cc1 [(R)-13d] | > 16 | > 16 | > 2540 | ≤6 | ≤6 | – | – | – |
| O=C(NC[C@@H](OCc1ccc(C#Cc2ccc(CN3CCOCC3)cc2)cc1)C(=O)NO)c1ccc2ccccc2n1 [(R)-13e] | 8 (≈ 14.2 µM) | > 16 | > 2540 | 12.7 ± 1.6 | ≤6 | – | – | – |
| O=C(NC[C@@H](OCc1ccc(C#Cc2ccc(CN3CCOCC3)cc2)cc1)C(=O)NO)c1cnc2ccccc2c1 [(R)-13f] | > 16 | > 16 | > 2540 | 10.3 ± 1.2 | ≤6 | – | – | – |
| O=C(NC[C@@H](OCc1ccc(C#Cc2ccc(CN3CCOCC3)cc2)cc1)C(=O)NO)c1cc2ccccc2[nH]1 [(R)-13g] | 16 (≈ 29 µM) | > 16 | > 2540 | 9.0 ± 1.0 | ≤6 | – | – | – |
| O=C(NC[C@@H](OCc1ccc(C#Cc2ccc(CN3CCOCC3)cc2)cc1)C(=O)NO)c1ccc2[nH]ccc2c1 [(R)-13j] | 16 (≈ 29 µM) | > 16 | 1150 ± 317 | 11.7 ± 1.2 | ≤6 | – | – | – |
| O=C(NC[C@@H](OCc1ccc(C#Cc2ccc(CN3CCOCC3)cc2)cc1)C(=O)NO)c1cc(-c2ccccc2)[nH]n1 [(R)-13m] | > 16 | > 16 | > 2540 | 9.7 ± 1.3 | ≤6 | – | – | – |
| Cc1noc(C)c1C(=O)NC[C@@H](OCc1ccc(C#Cc2ccc(CN3CCOCC3)cc2)cc1)C(=O)NO [(R)-13n] | 8 (≈ 15 µM) | > 16 | > 2540 | 16.3 ± 1.6 | ≤6 | no inhibitory activity | < 10 | – |
| O=C(NO)[C@@H](CN(Cc1ccccc1)Cc1ccccc1)OCc1ccc(C#Cc2ccc(CN3CCOCC3)cc2)cc1 [(R)-37, (R)-3-(Dibenzylamino)-N-hydroxy-2-[(4-{[4-(morpholinomethyl)phenyl]ethynyl}benzyl)oxy]propanamide] | > 16 | > 16 | > 2540 | ≤6 | ≤6 | – | – | – |
| COc1ccc2[nH]ccc2c1 [F1] | – | – | – | – | – | – | – | yes |
